Here are results for 25 compounds from patent publication US7169789B2 (Kirin Beer Kabushiki Kaisha, priority 1999, dated 2007).

In experiment [1] the test system is activation of MAPK within vascular endothelial cells induced by VEGF stimulation. The experiment in a line: Inhibitory activity against activation of MAPK within vascular endothelial cells induced by VEGF stimulation. The class given is cell-based. The following applies: Endothelial cell; human funicular venous vascular endothelial cells, VEGF 50 ng/ml, phosphorylated MAPK by immunoblotting. On the procedure: Measurement of Inhibitory Activity Against Activation of MAPK Within Vascular Endothelial Cells Induced by VEGF Stimulation
Human funicular venous vascular endothelial cells (purchased from Chronetics) were cultured in an EGM-2 medium (purchased from Chronetics) within an incubator containing 5% carbon dioxide until 50 to 70% confluent, and the culture was inoculated into wells, containing the same medium, in a 96-well flat-bottom plate in an amount of 1.5×10^5 per well. After cultivation at 37° C. overnight, the medium was replaced by an EBM-2 medium containing 0.5% fetal calf serum (purchased from Chronetics), followed by cultivation for 24 hr. A solution of the test compound in dimethyl sulfoxide was added to each well, and the cultivation was continued at 37° C. for additional one hr. A human recombinant vascular endothelial growth factor (hereinafter abbreviated to “VEGF”) was added to a final concentration of 50 ng/ml, and the stimulation of cells was carried out at 37° C. for 8 min. The medium was removed, the cells were washed with phosphate buffered saline (pH 7.4), and 10 μl of a solubilization buffer (Tris buffered saline (pH 7.4) containing 1% Triton X100, 2 mM sodium orthovanadylate, and 1 mM disodium ethylenediaminetetraacetate) was then added thereto. The mixture was shaken at 4° C. for one hr to solubilize the cells. An equal amount of Tris buffered saline containing 1% sodium laurylsulfate was added to and thoroughly mixed with the solution. This solution (2 μl) was adsorbed on a PVDF filter by dot blotting, and this filter was subjected to immunoblotting with anti-tyrosine phosphorylated MAPK antibody (purchased from Daiichi Pure Chemicals).
The level of phosphorylated MAPK was quantitatively determined with a densitometer, and the percentage phosphorylated MAPK in the presence of the test compound was determined by presuming the level of phosphorylated MAPK with the addition of VEGF in the absence of the test compound to be 100% and the level of phosphorylated MAPK in the absence of the test compound and VEGF to be 0%. The test compound concentration (IC50) necessary for inhibiting 50% of the activation of MAPK was calculated based on the percentage of phosphorylated MAPK.
Background: A western blot detects proteins with antibodies after separation by electrophoresis.

A further experiment deals with T1, human KDR (Homo sapiens, UniProt P35968).
T1 construct: expressed in transfected cells; host or cells: NIH 3T3 cells (Sawano A et al., Cell Growth & Differentiation 7, 213-221 (1996))
The experiment in a line: Inhibitory activity against KDR phosphorylation by ELISA. In kind it is cell-based. The following applies: NIH 3T3 cells transfected with human KDR, VEGF 100 ng/ml. On the technique in general: In an ELISA, binding on a coated surface is turned into a signal by an enzyme label.

The test system of the next experiment is Human glioma cells GL07. The experiment in a line: Antitumor effect on human glioma cells (GL07) transplanted into nude mice. Particulars: Mus musculus, Glioma cell, 216 h, GL07, oral, 20 mg/kg once a day for 9 days, read-out: TGIR, % (tumor growth inhibition rate). The class given is in vivo. An outline of the steps:
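GL07 xenografts in nude mice, grouped (n=4) at ~100 mm^3 tumor volume. Test compound 20 mg/kg p.o. or i.p. once daily for 9 days; vehicle controls. TGIR = (1−Tx/Cx)×100 from tumor volumes normalized to day-of-start volume = 1.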

T1 sequence (P35968 20-1356): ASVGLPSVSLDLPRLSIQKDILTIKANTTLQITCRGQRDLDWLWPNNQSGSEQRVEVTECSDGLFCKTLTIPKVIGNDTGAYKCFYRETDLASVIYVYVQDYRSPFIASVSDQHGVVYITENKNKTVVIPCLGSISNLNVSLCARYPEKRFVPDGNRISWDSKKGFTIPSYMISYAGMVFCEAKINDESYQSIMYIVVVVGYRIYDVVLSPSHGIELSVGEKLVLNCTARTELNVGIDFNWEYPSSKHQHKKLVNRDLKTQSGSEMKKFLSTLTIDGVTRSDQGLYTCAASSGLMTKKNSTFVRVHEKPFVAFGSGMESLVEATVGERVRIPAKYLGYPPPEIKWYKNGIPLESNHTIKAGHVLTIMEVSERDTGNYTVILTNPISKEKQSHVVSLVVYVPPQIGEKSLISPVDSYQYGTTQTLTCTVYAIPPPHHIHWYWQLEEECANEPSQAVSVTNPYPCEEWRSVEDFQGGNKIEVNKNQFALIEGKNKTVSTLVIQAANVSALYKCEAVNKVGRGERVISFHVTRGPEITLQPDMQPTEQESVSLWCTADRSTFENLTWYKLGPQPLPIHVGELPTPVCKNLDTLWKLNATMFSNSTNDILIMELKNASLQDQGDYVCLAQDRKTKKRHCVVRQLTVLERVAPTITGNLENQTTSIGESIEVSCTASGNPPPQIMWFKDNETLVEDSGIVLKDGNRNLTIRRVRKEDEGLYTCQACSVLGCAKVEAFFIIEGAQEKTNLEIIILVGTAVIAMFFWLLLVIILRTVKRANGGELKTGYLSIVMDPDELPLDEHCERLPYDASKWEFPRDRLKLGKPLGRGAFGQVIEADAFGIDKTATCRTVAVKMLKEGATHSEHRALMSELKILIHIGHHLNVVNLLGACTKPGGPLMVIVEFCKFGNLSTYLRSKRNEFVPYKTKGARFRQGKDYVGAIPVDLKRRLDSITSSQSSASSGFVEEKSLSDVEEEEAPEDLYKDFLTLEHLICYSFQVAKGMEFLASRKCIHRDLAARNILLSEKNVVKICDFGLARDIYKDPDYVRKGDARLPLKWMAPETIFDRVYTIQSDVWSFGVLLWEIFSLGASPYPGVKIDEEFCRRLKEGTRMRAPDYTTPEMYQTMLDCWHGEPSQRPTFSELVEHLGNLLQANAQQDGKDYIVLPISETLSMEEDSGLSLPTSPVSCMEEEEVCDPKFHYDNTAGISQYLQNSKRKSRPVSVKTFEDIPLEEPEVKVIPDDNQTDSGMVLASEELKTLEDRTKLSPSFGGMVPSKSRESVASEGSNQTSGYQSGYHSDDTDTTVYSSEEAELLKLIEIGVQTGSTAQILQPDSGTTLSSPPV

As to `CCCNC(=O)Nc1ccc(Oc2ncnc3cc(OC)c(OC)cc23)cc1` [Example 64, N-{4-[(6,7-Dimethoxy-4-quinazolinyl)oxy]-phenyl}-N′-propylurea], the IC50 was determined as 42 nM in experiment [1] and 150 nM against human KDR. In the experiment with Human glioma cells GL07, the inhibition in vivo at 20 mg/kg worked out at 37%.

For the compound `CCCCNC(=O)Nc1ccc(Oc2ncnc3cc(OC)c(OC)cc23)c(C)c1` [Example 98, N-Butyl-N′-{4-[(6,7-dimethoxy-4-quinazolinyl)oxy]-3-methylphenyl}urea], the IC50 in experiment [1] was determined as 450 nM; at human KDR, 330 nM. Further, the inhibition in vivo at 20 mg/kg in the experiment with Human glioma cells GL07 was found to be 38%.

Turning to `CCCCCNC(=O)Nc1ccc(Oc2ncnc3cc(OC)c(OC)cc23)cc1Cl` [Example 78, N-{2-Chloro-4-[(6,7-dimethoxy-4-quinazolinyl)oxy]phenyl}-N′-pentylurea], the IC50 in experiment [1] stood at 4.1 nM; on human KDR it was 3.4 nM. Moreover, in the experiment on Human glioma cells GL07, the inhibition in vivo at 20 mg/kg came to 21%.

Regarding `CCCNC(=O)Nc1ccc(Oc2ncnc3cc(OC)c(OC)cc23)c(C)c1` [Example 97, N-{4-[(6,7-Dimethoxy-4-quinazolinyl)oxy]-3′-methylphenyl}-N′-propylurea], the figures for the IC50 (in experiment [1]; on human KDR) were 518 nM and 490 nM, respectively. Further, the inhibition in vivo at 20 mg/kg with Human glioma cells GL07 was 48%.

Consider `CCCNC(=O)Nc1ccc(Oc2ncnc3cc(OC)c(OC)cc23)cc1C` [Example 102, N-{4-[(6,7-Dimethoxy-4-quinazolinyl)oxy]-2-methylphenyl}-N′-propylurea], for which the IC50 in experiment [1] stood at 150 nM; at human KDR, 105 nM. Also, in the experiment with Human glioma cells GL07, the inhibition in vivo at 20 mg/kg was found to be 24%.

`COc1cc2ncnc(Oc3ccc(NC(=O)Nc4ccc(F)cc4)c(Cl)c3)c2cc1OC` [Example 85, N-{2-Chloro-4-[(6,7-dimethoxy-4-quinazolinyl)oxy]phenyl}-N′-(4-fluorophenyl)urea]: the values for the half-inhibitory concentration (IC50) (in experiment [1]; on human KDR) were 0.7 nM and 0.5 nM, respectively. The inhibition in vivo at 20 mg/kg in the experiment on Human glioma cells GL07 was 26%.

As to `C=CCNC(=O)Nc1ccc(Oc2ncnc3cc(OC)c(OC)cc23)cc1` [Example 68, N-Allyl-N′-{4-[(6,7-Dimethoxy-4-quinazolinyl)oxy]phenyl}urea], the 50% inhibitory concentration (IC50) in experiment [1] turned out to be 45 nM; on human KDR it was 24 nM. In the experiment on Human glioma cells GL07, the inhibition in vivo at 20 mg/kg was found to be 57%.

As to `CCCNC(=O)Nc1ccc(Oc2ncnc3cc(OC)c(OC)cc23)cc1[N+](=O)[O-]` [Example 107, N-{4-[(6,7-Dimethoxy-4-quinazolinyl)oxy]-2-nitrophenyl}-N′-propylurea], the concentration for half-maximal inhibition (IC50) in experiment [1] is 10.2 nM; against human KDR, 11 nM. In addition, the inhibition in vivo at 20 mg/kg in the experiment with Human glioma cells GL07 amounted to 49%.

For `C#CCNC(=O)Nc1ccc(Oc2ncnc3cc(OC)c(OC)cc23)cc1` [Example 69, N-{4-[(6,7-Dimethoxy-4-quinazolinyl)-oxy]phenyl}-N′-(2-propynyl)urea], the IC50 came to 67 nM in experiment [1] and 64 nM on human KDR. Further, in the experiment on Human glioma cells GL07, the inhibition in vivo at 20 mg/kg was found to be 26%.

Take `CCC(C)NC(=O)Nc1ccc(Oc2ncnc3cc(OC)c(OC)cc23)cc1` (stereo not shown) [Example 67, N-(sec-Butyl)-N′-{4-[(6,7-dimethoxy-4-quinazolinyl)oxy]phenyl}urea]: the IC50 in experiment [1] is 345 nM; on human KDR, 63 nM. In the experiment on Human glioma cells GL07, the inhibition in vivo at 20 mg/kg came to 30%.

As to `COc1cc2ncnc(Oc3ccc(NC(=O)Nc4ccc(F)cc4F)cc3C)c2cc1OC` [Example 99, N-(2,4-Difluorophenyl)-N′-{4-[(6,7-dimethoxy-4-quinazolinyl)oxy]-3-methylpenyl}urea], the IC50 in experiment [1] came to 8.8 nM; against human KDR it was 25 nM. Moreover, in the experiment with Human glioma cells GL07, the inhibition in vivo at 20 mg/kg was 33%.

For `COc1cc2ncnc(Oc3ccc(NC(=O)Nc4ccc(F)cc4F)c(C)c3)c2cc1OC` [Example 104, N-(2,4-Difluorophenyl)-N′-{4-[(6,7-dimethoxy-4-quinazolinyl)oxy]-2-methylphenyl}urea], the concentration for half-maximal inhibition (IC50) in experiment [1] was found to be 5.3 nM; against human KDR it was 3.9 nM. Further, in the experiment on Human glioma cells GL07, the inhibition in vivo at 20 mg/kg was found to be 22%.

Turning to `CCCCNC(=O)Nc1ccc(Oc2ncnc3cc(OC)c(OC)cc23)cc1Cl` [Example 77, N-Butyl-N′-{2-chloro-4-[(6,7-dimethoxy-4-quinazolinyl)oxy]phenyl}urea], the figures for the IC50 (in experiment [1]; at human KDR) were 71 nM and 6 nM, respectively. The inhibition in vivo at 20 mg/kg in the experiment on Human glioma cells GL07 stood at 26%.

As to `C=CCNC(=O)Nc1ccc(Oc2ncnc3cc(OC)c(OC)cc23)cc1Cl` [Example 80, N-Allyl-N′-{2-chloro-4-[(6,7-dimethoxy-4-quinazolinyl)oxy]phenyl}urea], the IC50 in experiment [1] came to 13 nM; on human KDR, 2.7 nM. Further, the inhibition in vivo at 20 mg/kg with Human glioma cells GL07 worked out at 52%.

Turning to `CCCCNC(=O)Nc1ccc(Oc2ncnc3cc(OC)c(OC)cc23)cc1C` [Example 103, N-Butyl-N′-{4-[(6,7-dimethoxy-4-quinazolinyl)oxy]-2-methylphenyl}urea], the values for the IC50 (in experiment [1]; against human KDR) were 53 nM and 78 nM, respectively. Besides, the inhibition in vivo at 20 mg/kg in the experiment on Human glioma cells GL07 amounted to 23%.

With `CCCCCNC(=O)Nc1ccc(Oc2ncnc3cc(OC)c(OC)cc23)cc1` [Example 66, N-{4-[(6,7-Dimethoxy-4-quinazolinyl)oxy]-phenyl}-N′-pentylurea], the results for the IC50 (in experiment [1]; at human KDR) were 21 nM and 15 nM, respectively. In the experiment with Human glioma cells GL07, the inhibition in vivo at 20 mg/kg is 26%.

For `COc1cc2ncnc(Oc3ccc(NC(=O)N(C)c4ccccn4)c(Cl)c3)c2cc1OC` [Example 83], the 50% inhibitory concentration (IC50) is over 1000 nM in experiment [1] and 840 nM against human KDR. Moreover, the inhibition in vivo at 20 mg/kg in the experiment with Human glioma cells GL07 was found to be 31%.

For `CCCCNC(=O)Nc1ccc(Oc2ncnc3cc(OC)c(OC)cc23)cc1F` [Example 89, N-Butyl-N′-{4-[(6,7-dimethoxy-4-quinazolinyl)oxy]-2-fluorophenyl}urea], the IC50 came to 45 nM in experiment [1] and 24 nM against human KDR. The inhibition in vivo at 20 mg/kg with Human glioma cells GL07 is 40%.

On to `COc1cc2ncnc(Oc3ccc(NC(=O)Nc4ccc(F)cc4)cc3)c2cc1OC` [Example 73, N-{4-[(6,7-Dimethoxy-4-quinazolinyl)oxy]-phenyl}-N′-(4-fluorophenyl)urea], for which the IC50 in experiment [1] is under 2 nM; against human KDR it was 1 nM. Moreover, in the experiment with Human glioma cells GL07, the inhibition in vivo at 20 mg/kg was 34%.

`COc1cc2ncnc(Oc3ccc(NC(=O)Nc4ccc(F)cc4)cc3C)c2cc1OC` [Example 100, N-{4-[(6,7-Dimethoxy-4-quinazolinyl)oxy)-3-methylphenyl}-N′-(4-fluorophenyl)urea]: the figures for the IC50 (in experiment [1]; against human KDR) were 5.2 nM and 13 nM, respectively. Moreover, the inhibition in vivo at 20 mg/kg in the experiment on Human glioma cells GL07 stood at 36%.

For `CCC(C)NC(=O)Nc1ccc(Oc2ncnc3cc(OC)c(OC)cc23)cc1Cl` (stereo not shown) [Example 79, N-(sec-Butyl)-N′-{2-chloro-4-[(6,7-dimethoxy-4-quinazolinyl)oxy]phenyl}urea], the IC50 in experiment [1] was 30 nM; at human KDR it was 18 nM. The inhibition in vivo at 20 mg/kg with Human glioma cells GL07 amounted to 28%.

`COc1cc2ncnc(Oc3ccc(NC(=O)Nc4ccc(F)cc4F)c(F)c3)c2cc1OC` [Example 94, N-(2,4-Difluorophenyl)-N′-{4-[(6,7-dimethoxy-4-quinazolinyl)oxy]-2-fluorophenyl}urea]: the 50% inhibitory concentration (IC50) in experiment [1] came to 1.8 nM; against human KDR, 2.3 nM. The inhibition in vivo at 20 mg/kg in the experiment with Human glioma cells GL07 was 29%.

Take `COc1cc2ncnc(Oc3ccc(NC(=O)NCc4ccc(F)cc4F)c(Cl)c3)c2cc1OC` [Example 82, N-{2-Chloro-4-[(6,7-dimethoxy-4-quinazolinyl)oxy]phenyl}-N′-(2,4-difluorobenzyl)urea]: the IC50 in experiment [1] was 3.8 nM; against human KDR it was 8.4 nM. The inhibition in vivo at 20 mg/kg in the experiment with Human glioma cells GL07 amounted to 27%.

Take `COc1ccccc1NC(=O)Nc1ccc(Oc2ncnc3cc(OC)c(OC)cc23)cc1F` [Example 96, N-{4-[(6,7-Dimethoxy-4-quinazolinyl)oxy]-2-fluorophenyl}-N′-(2-methoxyphenyl)urea]: the IC50 in experiment [1] was under 1 nM; at human KDR, 0.4 nM.

As to `COc1ccccc1NC(=O)Nc1ccc(Oc2ncnc3cc(OC)c(OC)cc23)cc1Cl` [Example 86, N-{2-Chloro-4-[(6,7-dimethoxy-4-quinazolinyl)oxy]phenyl}-N′-(2-methoxyphenyl)urea], the IC50 in experiment [1] worked out at 0.6 nM; on human KDR it was 1.5 nM.

The term IC50 denotes the midpoint of a concentration-inhibition curve.
